For experiment [1], the target named is T1, complement C5a receptor 1 (C5aR1) (Homo sapiens, UniProt P21730).
T1 construct: β-galactosidase fragment (PathHunter enzyme complementation); host or cells: CHO-K1 (PathHunter CHO-K1 C5aR1 β-arrestin cell line)
T1 sequence (P21730 1-350): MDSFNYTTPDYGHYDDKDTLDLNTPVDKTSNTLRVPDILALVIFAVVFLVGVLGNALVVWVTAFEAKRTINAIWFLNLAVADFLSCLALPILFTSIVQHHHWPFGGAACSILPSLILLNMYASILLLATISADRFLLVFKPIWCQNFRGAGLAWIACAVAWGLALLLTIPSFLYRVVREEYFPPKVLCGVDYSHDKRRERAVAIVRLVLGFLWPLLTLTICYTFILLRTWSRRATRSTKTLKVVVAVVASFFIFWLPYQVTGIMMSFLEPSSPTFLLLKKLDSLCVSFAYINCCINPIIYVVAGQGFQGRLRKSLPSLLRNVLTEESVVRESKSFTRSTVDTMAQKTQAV
In words: β-arrestin recruitment via C5aR1 activation in live CHO-K1 cells (PathHunter), antagonist mode. The experiment is classed as cell-based. Particulars: antagonist mode; recombinant hC5a (EC90) as competing natural agonist; live CHO-K1 cells; read-out: [Antagonist] B-arrestin2 recruitment: Average IC50; call rule not given here. In outline:
(§1)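 β-arrestin recruitment to C5aR1 in CHO-K1 cells is detected by enzyme-fragment complementation. Antagonism is measured against recombinant hC5a at its EC90; agonism is measured with compound alone. Potencies are grouped into IC50 categories.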
(In general: Activated receptors often draw arrestin, which recruitment assays turn into a signal.)

The target of experiment [2] is T1, complement C5a receptor 1 (C5aR1). In words: β-arrestin recruitment via C5aR1 activation in live CHO-K1 cells (PathHunter), agonist mode. The experiment is classed as cell-based. In outline:
as §1

The source of these data is patent US20260317320A1, “C5AR1 ANTAGONISTS AND USES THEREOF” (Vanqua Bio, Inc., priority 2022, published 2026).

Structures are written as SMILES. Bounds are passed on as bounds.

As a reminder, the IC50 is the point on the concentration scale where inhibition reaches its midpoint. With `Cc1cccc(F)c1N1CCC(c2nc3nccnc3n(Cc3ccccc3OC(F)F)c2=O)CC1` [compound 46, 1-(2-(difluoromethoxy)benzyl)-3-(1-(2-fluoro-6-methylphenyl)piperidin-4-yl)pyrazino[2,3-b]pyrazin-2(1H)-one], the IC50 in experiment [1] is 0.5 to 5 µM. Further, the “[Agonist] B-arrestin2 recruitment: Average EC50 (nM)” value (shortened to “[Agonist] B-arrestin2 recruitment”) in experiment [2] is “Non-Active”.
As for `Cc1ncc2cc(C3CCN(c4c(C)cccc4F)CC3)c(=O)n(Cc3nccnc3C(F)(F)F)c2n1` [compound 47, 6-(1-(2-Fluoro-6-methylphenyl)piperidin-4-yl)-2-methyl-8-((3-(trifluoromethyl)pyrazin-2-yl)methyl)pyrido[2,3-d]pyrimidin-7(8H)-one], the IC50 in experiment [1] was 0.5 to 5 µM. For the same compound, in experiment [2], the “[Agonist] B-arrestin2 recruitment” value is recorded as “Non-Active”.
In the case of `Cc1cccc(F)c1N1CC(c2cc3nccnc3n(Cc3ncccc3C(F)(F)F)c2=O)C1` [compound 48, 7-(1-(2-Fluoro-6-methylphenyl)azetidin-3-yl)-5-((3-(trifluoromethyl)pyridin-2-yl)methyl)pyrido[2,3-b]pyrazin-6(5H)-one], the IC50 in experiment [1] was 0.5 to 5 µM. Besides, the “[Agonist] B-arrestin2 recruitment” value in experiment [2] was “Non-Active”.
For the compound `Cc1cnc2c(=O)n(C3CCN(c4c(C)cccc4F)CC3)c(=O)n(Cc3ncccc3C(F)(F)F)c2n1` [compound 50, 3-(1-(2-Fluoro-6-methylphenyl)piperidin-4-yl)-7-methyl-1-((3-(trifluoromethyl)pyridin-2-yl)methyl)pteridine-2,4(1H,3H)-dione], in experiment [1], the concentration for half-maximal inhibition (IC50) lay within 0.5 to 5 µM. For the same compound, the “[Agonist] B-arrestin2 recruitment” value in experiment [2] is reported as “Non-Active”.
With `CCOc1ncc2cc(C3CCN(c4c(C)cccc4F)CC3)c(=O)n(Cc3nccnc3C(F)(F)F)c2n1` [compound 51, 2-Ethoxy-6-(1-(2-fluoro-6-methylphenyl)piperidin-4-yl)-8-((3-(trifluoromethyl)pyrazin-2-yl)methyl)pyrido[2,3-d]pyrimidin-7(8H)-one], the IC50 in experiment [1] fell in the range of 0.5 to 5 µM. In experiment [2], the “[Agonist] B-arrestin2 recruitment” value is “Non-Active”.
In the case of `Cc1cnc2cc(C3CCN(c4cc(F)cnc4C)CC3)c(=O)n(Cc3nccnc3C(F)(F)F)c2n1` [compound 52, 7-(1-(5-Fluoro-2-methylpyridin-3-yl)piperidin-4-yl)-3-methyl-5-((3-(trifluoromethyl)pyrazin-2-yl)methyl)pyrido[2,3-b]pyrazin-6(5H)-one], the IC50 in experiment [1] was > 100 µM. In addition, the “[Agonist] B-arrestin2 recruitment” value in experiment [2] is reported as “Non-Active”.
Consider `COc1cnc2cc(C3CCN(c4c(C)cccc4F)CC3)c(=O)n(Cc3ncccc3C(F)(F)F)c2n1` [compound 54, 7-(1-(2-Fluoro-6-methylphenyl)piperidin-4-yl)-3-methoxy-5-((3-(trifluoromethyl)pyridin-2-yl)methyl)pyrido[2,3-b]pyrazin-6(5H)-one], for which the half-maximal inhibitory concentration (IC50) in experiment [1] was > 100 µM. Moreover, in experiment [2], the “[Agonist] B-arrestin2 recruitment” value is on record as “Non-Active”.
Regarding `Cc1cnc2c(cc(C3CCN(c4c(C)cccc4F)CC3)c(=O)n2Cc2ccccc2C(F)(F)F)n1` [compound 55, 7-(1-(2-Fluoro-6-methylphenyl)piperidin-4-yl)-2-methyl-5-(2-(trifluoromethyl)-benzyl)-pyrido[2,3-b]pyrazin-6(5H)-one], the IC50 in experiment [1] was 0.5 to 5 µM. In experiment [2], the “[Agonist] B-arrestin2 recruitment” value is listed as “Non-Active”.
With `Cc1cnc2cc(C3CCN(c4cc(F)cnc4C)CC3)c(=O)n(Cc3ncccc3C(F)(F)F)c2n1` [compound 56, 7-(1-(5-fluoro-2-methylpyridin-3-yl)piperidin-4-yl)-3-methyl-5-((3-(trifluoromethyl)-pyridin-2-yl)methyl)pyrido[2,3-b]pyrazin-6(5H)-one], the 50% inhibitory concentration (IC50) in experiment [1] fell in the range of 5 to 100 µM. In addition, the “[Agonist] B-arrestin2 recruitment” value in experiment [2] is on record as “Non-Active”.
As to `Cc1cccc(F)c1N1CCC(c2c(C)c3nccnc3n(Cc3ncccc3C(F)(F)F)c2=O)CC1` [compound 57, 7-(1-(2-Fluoro-6-methylphenyl)piperidin-4-yl)-8-methyl-5-((3-(trifluoromethyl)pyridin-2-yl)methyl)pyrido[2,3-b]pyrazin-6(5H)-one], the IC50 in experiment [1] was < 0.5 µM. The “[Agonist] B-arrestin2 recruitment” value in experiment [2] was “Non-Active”.
In the same order, the values of `COc1cnc2cc(C3CCN(c4c(C)cccc4F)CC3)c(=O)n(Cc3ccccc3C(F)(F)F)c2n1` [compound 58, 7-(1-(2-Fluoro-6-methylphenyl)piperidin-4-yl)-3-methoxy-5-(2-(trifluoromethyl)benzyl)pyrido[2,3-b]pyrazin-6(5H)-one] are 0.5 to 5 µM and “Non-Active”.
In the case of `Cc1cnc2cc(N3CCN(c4cc(F)cnc4C)CC3)c(=O)n(Cc3nccnc3C(F)(F)F)c2n1` [compound 59, 7-(4-(5-Fluoro-2-methylpyridin-3-yl)piperazin-1-yl)-3-methyl-5-((3-(trifluoromethyl)pyrazin-2-yl)methyl)pyrido[2,3-b]pyrazin-6(5H)-one], in experiment [1], the IC50 is > 100 µM. In addition, the “[Agonist] B-arrestin2 recruitment” value in experiment [2] is “Non-Active”.
As to `O=c1c(C2CCN(c3cnccc3C(F)(F)F)CC2)cc2nccnc2n1Cc1ncccc1C(F)(F)F` [compound 60, 5-((3-(trifluoromethyl)pyridin-2-yl)methyl)-7-(1-(4-(trifluoromethyl)pyridin-3-yl)piperidin-4-yl)pyrido[2,3-b]pyrazin-6(5H)-one], the concentration for half-maximal inhibition (IC50) in experiment [1] is < 0.5 µM. Moreover, in experiment [2], the “[Agonist] B-arrestin2 recruitment” value is reported as “Non-Active”.
In the case of `Cc1ccnc(F)c1N1CCC(c2c(C)c3nccnc3n(Cc3ncccc3C(F)(F)F)c2=O)CC1` [compound 62, 7-(1-(2-Fluoro-4-methylpyridin-3-yl)piperidin-4-yl)-8-methyl-5-((3-(trifluoromethyl)pyridin-2-yl)methyl)pyrido[2,3-b]pyrazin-6(5H)-one], the IC50 in experiment [1] lay within 0.5 to 5 µM. For the same compound, the “[Agonist] B-arrestin2 recruitment” value in experiment [2] is on record as “Non-Active”.
Taken in the same sequence, the figures for `Cc1cnc2c(C)c(C3CCN(c4c(C)ccnc4F)CC3)c(=O)n(Cc3nccnc3C(F)(F)F)c2n1` [compound 63, 7-(1-(2-Fluoro-4-methylpyridin-3-yl)piperidin-4-yl)-3,8-dimethyl-5-((3-(trifluoromethyl)pyrazin-2-yl)methyl)pyrido[2,3-b]pyrazin-6(5H)-one] were 0.5 to 5 µM and “Non-Active”.
As for `O=c1c(C2CCN(c3ccccc3C(F)(F)F)CC2)cc2nccnc2n1Cc1nccnc1C(F)(F)F` [compound 64, 7-(1-(2-(Trifluoromethyl)phenyl)piperidin-4-yl)-5-((3-(trifluoromethyl)pyrazin-2-yl)methyl)pyrido[2,3-b]pyrazin-6(5H)-one], the 50% inhibitory concentration (IC50) in experiment [1] was in the range of 0.5 to 5 µM. Moreover, in experiment [2], the “[Agonist] B-arrestin2 recruitment” value is recorded as “Non-Active”.
Taken in the same sequence, the figures for `COc1cnc2c(cc(C3CCN(c4c(C)cccc4F)CC3)c(=O)n2Cc2ncccc2C(F)(F)F)n1` [compound 65, 7-(1-(2-Fluoro-6-methylphenyl)piperidin-4-yl)-2-methoxy-5-((3-(trifluoromethyl)pyridin-2-yl)methyl)pyrido[2,3-b]pyrazin-6(5H)-one] were 0.5 to 5 µM and “Non-Active”.
For `Cc1cnc2cc(C3CCN(c4c(C)cccc4F)CC3)c(=O)n(Cc3ncccc3OC(F)F)c2n1` [compound 66, 5-((3-(Difluoromethoxy)pyridin-2-yl)methyl)-7-(1-(2-fluoro-6-methylphenyl)piperidin-4-yl)-3-methylpyrido[2,3-b]pyrazin-6(5H)-one], the IC50 in experiment [1] was < 0.5 µM. The “[Agonist] B-arrestin2 recruitment” value in experiment [2] is on record as “Non-Active”.
For `Cc1cnc2cc(N3CCN(c4c(C)cccc4F)CC3)c(=O)n(Cc3ncccc3C(F)(F)F)c2n1` [compound 67, 7-(4-(2-Fluoro-6-methylphenyl)piperazin-1-yl)-3-methyl-5-((3-(trifluoromethyl)pyridin-2-yl)methyl)pyrido[2,3-b]pyrazin-6(5H)-one], the IC50 in experiment [1] was < 0.5 µM. The “[Agonist] B-arrestin2 recruitment” value in experiment [2] is “Non-Active”.
`Cc1cnc2cc(C3CCN(c4c(C)cccc4F)CC3)c(=O)n(Cc3ncccc3OC(F)(F)F)c2n1` [compound 68, 7-(1-(2-Fluoro-6-methylphenyl)piperidin-4-yl)-3-methyl-5-((3-(trifluoromethoxy)pyridin-2-yl)methyl)pyrido[2,3-b]pyrazin-6(5H)-one]: in experiment [1], the IC50 is < 0.5 µM. In experiment [2], the “[Agonist] B-arrestin2 recruitment” value is recorded as “Non-Active”.
With `Cc1cnc2cc(N3CCN(c4cc(F)cnc4C)CC3)c(=O)n(Cc3ncccc3C(F)(F)F)c2n1` [compound 69, 7-(4-(5-Fluoro-2-methylpyridin-3-yl)piperazin-1-yl)-3-methyl-5-((3-(trifluoromethyl)pyridin-2-yl)methyl)pyrido[2,3-b]pyrazin-6(5H)-one], in experiment [1], the IC50 is > 100 µM. Besides, in experiment [2], the “[Agonist] B-arrestin2 recruitment” value was “Non-Active”.
On to `O=c1c(C2CCN(c3cnccc3C(F)(F)F)CC2)cc2nccnc2n1Cc1nccnc1C(F)(F)F` [compound 70, 5-((3-(Trifluoromethyl)pyrazin-2-yl)methyl)-7-(1-(4-(trifluoromethyl)pyridin-3-yl)piperidin-4-yl)pyrido[2,3-b]pyrazin-6(5H)-one], for which the IC50 in experiment [1] fell in the range of 0.5 to 5 µM. Moreover, the “[Agonist] B-arrestin2 recruitment” value in experiment [2] is listed as “Non-Active”.
